Assay results taken from patent US8828982B2, “Pyrimidine derivatives for the prevention of HIV infection” (Janssen Pharmaceutica N.V., priority 2003, dated 2014).

Assays:
Type in all cases: cell-based
[1] = system: monotropic HIV strain Ba-L; experiment: In vitro model c) (standard infection experiment), MO-DC/CD4(+) T cell co-cultures, ELISA for HIV antigens after 14 days; settings: concentration suppressing 50% of viral replication at end of primary culture (14 days), test compound present throughout, MOI 10^-3
Protocol: Monocyte-derived dendritic cells (MO-DC) were infected for 2 hours with the monotropic HIV strain Ba-L at a multiplicity of infection (MOI) of 10^−3. After infection, cells were washed 6 times and resuspended in 10% BCS at 400.000 cells/ml. Autologous CD4(+) T cells were purified out of the lymphocyte fraction of the same elutration as the MO-DC and used at a concentration of 2×10^6 cells/ml ((ratio MO-DC/CD4(+) T: 1/5).
A serial dilution of a compound of formula (I) (test compound) was added to the MO-DC/CD4(+) T cell co-cultures. Each experiment was done in 96-well plates, in which each cup contained 50 μl of MO-DC, 50 μl of CD4(+) T cells and 100 μl of test compound. Half of the culture medium, with test compound, was refreshed twice weekly, during 14 days. Supernatants were analysed by ELISA after 14 days of culture for the presence of HIV antigens. To determine antiviral activity, the test compound concentration able to suppress 50% of the viral replication at the end of the primary cultures (EC50) was measured.

[2] = system: MO-DC/CD4(+) T cell co-cultures (MO-DC stimulators, allogenic CD4(+) T cells responders); experiment: Immune suppressive activity in mixed leucocyte culture (MLC), standard assay; settings: concentration inhibiting 50% of [methyl-3H]-Thymidine incorporation, 5 days of culture, compound present throughout, read-out: ISC50 (nM) (Test B, standard assay))
Protocol: (§1) The compounds of formula (I) were tested for their immune-suppressive activity (defined as ISC50 value) in a classical MLC in which monocyte-derived dendritic cells (MO-DC) were used as stimulators and allogenic CD4(+) T cells as responders. A dilution series of test compound was added to the MO-DC/CD4(+) T cell co-cultures. After 5 days of culture, 20 μl of [methyl-3H]-Thymidine was added to each well and cultures were harvested after 7 hours. Analysis was done on a Topcount scintillation counter. The immune suppressive concentration (ISC50) is defined as the test compound concentration inhibiting 50% of normal immune proliferation (test compound concentration inhibiting 50% of [methyl-3H]-Thymidine incorporation). (standard MLC assay)

[3] = system: MO-DC/CD4(+) T cell co-cultures (MO-DC stimulators, allogenic CD4(+) T cells responders); experiment: Immune suppressive activity in mixed leucocyte culture (MLC), 24 hour assay; settings: test compound present only during first 24 hours of the 5-day culture; read-out: ISC50 (nM) (Test B, 24 hour assay))
Protocol: The compounds of formula (I) were tested for their immune-suppressive activity (defined as ISC50 value) in a classical MLC in which monocyte-derived dendritic cells (MO-DC) were used as stimulators and allogenic CD4(+) T cells as responders.
as §1, with “A” for “The compounds of formula (I) were tested for their immune-suppressive activity (defined as ISC50 value) in a classical MLC in which monocyte-derived dendritic cells (MO-DC) were used as stimulators and allogenic CD4(+) T cells as responders. A”
For the 24 hour assay, the test compound was only present during the first 24 hours of the 5-day culture period. After 24 hours, the cultures were washed (three times) and culture medium without compound was added. The experimental set-up was from then on similar to the standard MLC assay described above.

HIV = HIV replication inhibition test of "C. Pharmacological example" of WO 2003/016306; settings: test described in WO 2003/016306
Excerpt: Due to their antiretroviral properties, particularly their anti-HIV properties, especially their anti-HIV-1-activity, the compounds of formula (I), their N-oxides, pharmaceutically acceptable addition salts, quaternary amines and stereochemically isomeric forms thereof, are useful in the treatment of individuals infected by HIV. The HIV replication inhibiting effect of the compounds of formula (I) is described in WO 2003/016306. Compound 255 has a pIC50 value of 9.00 when tested in the test described under the heading “C. Pharmacological example” of WO 2003/016306.

HIV strain Ba-L = experiment: In vitro model b) (24 hour infection experiment), MO-DC co-cultured with autologous T4 cells
Protocol: Monocyte-derived dendritic cells (MO-DC) were co-cultured with autologous T4 cells and infected with HIV strain Ba-L at a multiplicity of infection (MOI) of 10^−3. A serial dilution of test compound was added at the time of infection. After 24 hours, 96-well plates were washed 3 times (test compound and free virus washed away) and medium (without test compound) was added. Half of the medium was refreshed twice a week. Culture supernatants were harvested after 7 and 14 days of culture. After 14 days, cultures were washed 3 times and PHA/IL-2 stimulated PBMC were added for a secondary culture to check for viral rescue. During secondary culture, half of the medium was refreshed twice weekly (IL-2 medium, without test compound). Supernatants were harvested after 1 and 2 weeks of secondary culture. After 2 weeks of secondary culture, cells were also harvested for PCR analysis. Supernatants were analysed in ELISA for the presence of HIV […] during primary and secondary culture.

Row | EC50 ([1]; Human immunodeficiency virus 1, BAL, T-cell, 336 h) [nM] | IC50 ([2]; Leucocyte, 120 h) [nM] | IC50 [3] [nM] | pIC50 (HIV) | EC50 [1] [nM] | IC50 [2] [nM] | EC50 (HIV strain Ba-L; test compound added at time of infection and washed away after 24 hours, MOI 10^-3) [nM] | Compound | cups tested positive in ELISA after 7 days of primary culture (HIV strain Ba-L; concentrations ranging from 10,000 to 10 nM, 6 cups)
1 | 5.5 | 1140 |  |  |  |  |  | Cc1cc(/C=C/c2ccncc2)cc(C)c1Nc1ccnc(Nc2ccc(C#N)cc2)n1 [Compound 162] | 
2 |  |  | 24600 | 9.00 | 0.05 | 20200 | 2 | Cc1cc(/C=C/C#N)cc(C)c1Oc1ccnc(Nc2ccc(C#N)cc2)n1 [Compound 255, 4-[[4-[4-(2-cyanoethenyl)-2,6-dimethylphenoxy]-2-pyrimidinyl]amino]benzonitrile (E)] | none out of 6
